These results are taken from PubChem BioAssay (NCI).

Each structure is given as a SMILES string.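 Test compounds were applied to cells in 96-well plates for 48 hours at 5 doses. GI50 is the concentration that inhibits growth by half. TGI denotes the concentration required for complete inhibition of growth.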 *1 amine or outer side, *2 acyl side, *3 side chain or, on linkers, in order; H or OH if unused. Where a SMILES comes first, the peptide text is derived from it. [ ]: non-standard residue; d: D form. ξ: configuration not given here. X21 = CC[C@@H](C)C(N[*:1])C(=O)[*:2]; ξR = N=C(N)NCCCC(N)C(=O)O; ξI = CCC(C)C(N)C(=O)O; ξL = CC(C)CC(N)C(=O)O; ξK = NCCCCC(N)C(=O)O; ξV = CC(C)C(N)C(=O)O; ξA = CC(N)C(=O)O

The assay has as its system NCI/ADR-RES ovarian. The assay is described as follows: inhibition of tumour cell growth, NCI panel, 48 h.
Take `OCC(O)C(O)C(O)/C=N/Nc1nc2ccccc2nc1-c1ccccc1` (centres undefined): the GI50 is 45.9 µM and the TGI was over 100 µM.

`NC(=O)c1ccc2nc3c(n2c1)C(=O)C(=O)c1ccccc1-3`: the GI50 is 1.88 µM and the TGI worked out at 6.19 µM.

With `OCc1ccc(N(CCN2CCCC2)Cc2ccc(F)cc2)cc1Cl`, the GI50 is 18.2 µM and the TGI was determined as 44.3 µM.

For `NC1=Nc2cc(OCCCN3Cc4ccccc4C3)c(OCC3CC3)cc2C12CCCC2`, the GI50 was 2.91 µM and the TGI was determined as 12 µM.

With `COc1cc(/C=C2\C(=O)Nc3cccc(Cl)c32)cc(OC)c1OC`, the GI50 was over 100 µM and the TGI is over 100 µM.

As to `COc1cc2c(cc1OCCCCOc1ccc(-c3nc4ccccc4s3)cc1)N=C[C@@H]1CCCN1C2=O`, the GI50 is 1.49 µM and the TGI was 5.17 µM.

On to `O=C(Nc1ccccc1)Nc1cccc(Oc2nnc(Cl)c3ccccc23)c1`, for which the GI50 was 2.63 µM and the TGI amounted to 6.39 µM.

For `O=C1NN(c2ccccc2)C(=O)/C1=C/c1ccc(Br)o1`, the GI50 was 15.8 µM and the TGI came to 54.8 µM.

`N#Cc1ccc2c(c1)C(=O)c1c-2n(CCCN)c(=O)c2cc([N+](=O)[O-])ccc12`: the GI50 is 0.359 µM and the TGI is 3.19 µM.

Molecule `CC(C)c1ccc(NC(=S)NC(=O)c2ccccc2)cc1` registered a TGI of over 100 µM.

With `CN1CCN(c2ccc(C(=O)Nc3cc(-c4cccc(NS(=O)(=O)c5ccccc5)c4)[nH]n3)cc2)CC1`, the GI50 was over 100 µM and the TGI was over 100 µM.

Consider `O=C1CCS/C(=N\S(=O)(=O)c2ccc(N3N=C4c5ccccc5CC4C3c3cccs3)cc2)N1C(=O)c1ccccc1` (centres undefined), for which the GI50 was 32.9 µM and the TGI is over 100 µM.

Turning to `CN(C)CCCn1c2nc(=O)[nH]c(=O)c-2nc2cc(Cl)c(Cl)cc21`, the GI50 was 7.9 µM and the TGI was over 100 µM.

As to `COc1ccc2c(c1)C1(C(=O)N2)C(C#N)=C(c2ccccc2)Nc2c1c(-c1ccccc1)nn2-c1ccccc1` (centres undefined), the GI50 was 31.9 µM and the TGI is over 100 µM.

As for `Cc1cc2cn3c4cccnc4[nH]c(=O)c3c2cc1C`, the GI50 was 1.39 µM and the TGI stood at 2.96 µM.

`N#C/C(=C\c1ccc(Br)cc1)n1nnc2ccccc21`: the GI50 was 0.323 µM and the TGI stood at 11 µM.

In the case of `CNCCCNCCCN1C(=O)c2ccc3c4c(ccc(c24)C1=O)C(=O)N(CCCNCc1ccccc1OC)C3=O`, the GI50 is 12.1 µM and the TGI came out at 71.1 µM.

As for `CCC(C)C1NC(=O)C(CC(C)C)NC(=O)C(C)NC(=O)C(C(C)C)NC(=O)C(CCCCN)NC(=O)C(CC(C)C)NC(=O)C(C(C)C)NC(=O)[C@H](C)NC(=O)C(C(C)CC)NC(=O)C(CCCN=C(N)N)NC(=O)C(CCCCN)NC(=O)C(CCCN=C(N)N)NC(=O)C(CCCCN)NC(=O)C([C@H](C)CC)NC(=O)C(CCCCN)NC1=O` (some centres undefined) (cyclo(A[ξV][ξL][ξK][ξV][ξA][ξL][ξI][ξK][X21][ξK][ξR][ξK][ξR][ξI])), the GI50 is 1.06 µM and the TGI worked out at 3.84 µM.

For the molecule `O=[N+]([O-])c1ccc2nc3ccccc3cc2c1`, the TGI was found to be 3.47 µM.

Take `Cc1[nH]nc2c1N=C(c1ccccc1Cl)c1cc([N+](=O)[O-])ccc1N2`: the GI50 is 0.728 µM and the TGI was over 25 µM.

As to `O=C(Nc1cccc(-n2cc(-c3ccncc3)c(-c3ccc(O)c(Cl)c3)n2)c1)Nc1cccc(C(F)(F)F)c1`, the GI50 was 3.24 µM and the TGI is over 100 µM.

Turning to `CC(C)Nc1ncc2cc(Oc3ccc(F)cc3F)c(=O)n(C)c2n1`, the GI50 is over 25 µM and the TGI was over 25 µM.

Turning to `COC1=C(Br)C(=O)C2=C(C1=O)C1C3=C(C(=O)C=CC3=O)C2c2ccccc21` (centres undefined), the GI50 was 18.8 µM and the TGI was 61.5 µM.

With `CCOC(=O)Nc1nc2c(C)cccc2s1`, the GI50 is 38.9 µM and the TGI was over 100 µM.

Regarding `Clc1ccc(Nc2ccnc(NCCCNc3ccnc4cc(Cl)ccc34)n2)cc1`, the GI50 was 1.76 µM and the TGI was 3.38 µM.

Consider `CCOC(=O)c1cc(C(=O)c2cc(OC)c(OC)c(OC)c2)n2ccccc12`, for which the GI50 is 0.0523 µM and the TGI is 2.75 µM.

In the case of `COc1ccccc1/C=C/C(=O)/C=C/c1ccccc1OC`, the GI50 was 2.53 µM and the TGI was found to be 8.98 µM.

For `COc1ccc(N(/C=C/C(=O)C(F)(F)F)CC(=O)c2ccc(Cl)c(Cl)c2)cc1`, the GI50 was 19 µM and the TGI worked out at 39.3 µM.
